#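 How tested: cells in 96-well plates exposed to compound for 48 hours at five concentrations. The concentration for full growth arrest is given as TGI.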
# Experiments:
# Experiment in all cases: growth of human tumour cells (NCI), 48 h
# [1] = tested on: MOLT-4 leukemia
# [2] = tested on: MALME-3M melanoma
# [3] = tested on: U251 CNS
# [4] = tested on: COLO 205 colon
# [5] = tested on: HT29 colon
# [6] = tested on: MDA-N
# [7] = tested on: HOP-62 NSCLC
# [8] = tested on: MCF7 breast
# [9] = tested on: A498 renal
# [10] = tested on: IGROV1 ovarian
# [11] = tested on: T-47D breast
# [12] = tested on: OVCAR-8 ovarian
# [13] = tested on: HL-60(TB) leukemia
# [14] = tested on: BT-549 breast
# [15] = tested on: SF-268 CNS
# [16] = tested on: HOP-92 NSCLC
# [17] = tested on: OVCAR-3 ovarian
# [18] = tested on: UACC-62 melanoma
# [19] = tested on: SNB-19 CNS
# [20] = tested on: SK-MEL-2 melanoma
Structure (SMILES),TGI [1] [µM],TGI [2] [µM],TGI [3] [µM],TGI [4] [µM],TGI [5] [µM],TGI [6] [µM],TGI [7] [µM],TGI [8] [µM],TGI [9] [µM],TGI [10] [µM],TGI [11] [µM],TGI [12] [µM],TGI [13] [µM],TGI [14] [µM],TGI [15] [µM],TGI [16] [µM],TGI [17] [µM],TGI [18] [µM],TGI [19] [µM],TGI [20] [µM]
CCn1c2ccccc2c2cc(NC(=O)c3c(NCCNCCO)nc(=O)[nH]c3C)ccc21,> 100,> 100,> 100,> 100,> 100,> 100,> 100,> 100,> 100,> 100,> 100,> 100,> 100,> 100,> 100,> 100,> 100,> 100,> 100,
COc1ccc(C(SCC(N)C(=O)O)(c2ccc(OC)cc2)c2ccc(OC)cc2)cc1 (stereo not drawn),24,16,29.8,17,16.7,12.7,17.8,16.5,22.7,20.2,21.4,18,> 31.6,28,19.9,31.6,17.1,15.7,22.6,18.4
COc1cccc(C2c3cc4c(cc3OC(N3CCCCC3)C2C)OCO4)c1OC (stereo not drawn),30.4,39.4,51.5,29,19.8,47,50.1,52.1,28.4,61.7,54.2,> 100,,57.4,48.4,37.9,20.7,33.6,> 100,26
Cn1c(=O)c2c(nc3n(C)c(=O)c4ccccc4n23)n(C)c1=O,13.4,> 100,> 100,> 100,> 100,> 100,> 84.3,> 100,> 63.6,> 100,> 100,> 100,> 100,> 100,> 100,> 100,> 100,> 100,> 100,> 100
Cc1cc(O)c2c(c1)CC(O)C1=C2C(=O)c2c(O)ccc(OC3CC(O)C(OC4CC(OC5CCC(O)C(C)O5)C(O)C(C)O4)C(C)O3)c2C1=O (stereo not drawn),1.75,2.1,3.22,2.95,5.6,3.74,3.77,2.96,4.91,2.9,8.38,3.51,1.68,3.42,3.43,3.54,2.16,3.05,3.38,3.83
c1cc(C[S+]2CCCC2)sc1C[S+]1CCCC1,> 100,> 100,> 100,> 100,> 100,> 100,> 100,> 100,> 100,> 100,> 100,> 100,> 100,> 100,> 100,> 100,> 100,> 100,> 100,
CCN(CC)CCCNc1ncc(C)c2c1c1ccc3c(O)cccc3c1n2C,1.84,34.7,2.6,17.5,5.04,3.01,2.58,2.06,32,5.97,49.3,3.5,5.07,4.05,36.6,26.6,18.2,49.2,3.17,33.8
N#CC1(C#N)C(c2ccccc2)C=CC(c2ccc([N+](=O)[O-])cc2)C1(C#N)C#N (stereo not drawn),7.1,,53,3.13,> 38.5,17,31.7,21.1,32.1,27.8,7.27,27.5,0.574,24.3,51.6,9.88,23.2,24.8,34.1,31.6
Cc1ccc(C2SCC(=O)N2NC(=O)c2ccncc2)s1 (stereo not drawn),> 100,> 100,> 100,> 100,> 100,> 100,> 100,> 100,> 100,> 100,> 100,> 100,,> 100,> 100,> 100,> 100,> 100,> 100,> 100
Cc1ccc(/C=N/NS(=O)(=O)c2ccc(/C=C3\NC(=O)NC3=O)cc2)cc1,> 100,> 100,> 100,> 100,> 100,> 100,91.1,> 100,> 100,> 100,> 100,> 100,> 100,> 100,57.7,> 100,> 100,> 100,> 100,> 100
C#CCCOC(=O)c1ccccc1OC(C)=O,> 100,,> 100,> 100,,> 100,> 100,> 100,> 100,> 100,> 100,> 100,,> 100,> 100,> 100,> 100,> 100,> 100,> 100
C=CCC1C(=O)Nc2cccc3ncn(c23)C1=O (stereo not drawn),> 100,> 100,> 100,> 100,> 100,> 100,> 100,> 100,> 100,> 100,> 100,> 100,> 100,> 100,> 100,> 100,> 100,> 100,> 100,> 100
CN1CCc2cc(N)cc3c2C1Cc1ccc2c(c1-3)OCO2 (stereo not drawn),35,58.6,> 100,> 86.9,> 100,> 100,> 100,> 100,> 100,58.5,> 100,> 100,> 75.7,> 100,> 100,66.9,> 76.5,70.5,> 100,> 100
COC(=O)c1ccccc1C1CN=NC12Cc1cc(C)cc(C)c1C2=O (stereo not drawn),> 100,> 100,> 100,> 100,> 100,> 100,> 100,> 100,66.2,> 100,> 100,> 100,51.7,> 100,> 100,> 100,> 100,> 100,> 100,> 100
COc1cccc(Nc2nc(N)nc(N)c2N=O)c1,41.8,> 100,> 100,51.9,75.3,> 100,> 100,> 100,47.7,94,24.3,40.9,79,96.8,> 100,40,> 100,38.8,> 100,> 100
CCOC(=O)c1cc2cc(C)cc(C(=O)c3ccc([N+](=O)[O-])cc3)c2[nH]1,> 100,> 100,> 100,> 100,> 100,> 100,> 100,> 100,> 100,> 100,> 100,,> 100,> 100,> 100,> 100,> 100,> 100,> 100,> 100
O=c1cc(-c2cccc(OCc3ccccc3)c2)[nH]c2cc3c(cc12)OCO3,> 100,> 100,1.84,> 22.7,> 97.3,0.417,9.98,> 100,3.16,> 100,> 100,9.87,0.412,> 100,> 70.3,18.6,3.58,12.3,14.9,5.88
C=C(CN)CO[Si](C)(C)C(C)(C)C,> 100,> 100,> 100,> 100,> 100,> 100,> 100,> 100,> 100,> 100,> 100,> 100,> 100,> 100,> 100,,> 100,> 100,> 100,> 100
COC(=O)/C=C1/OC(c2ccc(C)cc2)=C(Cl)C1=O,13.8,33.5,24.6,23.7,32.6,33.1,38.8,34.9,33.6,34.4,52.1,41.3,10.2,42.2,41.6,34.1,27.1,36.9,52.2,34.3
O=c1c(=[n+]2ccc(=C([O-])c3ccccc3)cc2)/c(=N/S(=O)(=O)c2ccccc2)c(=O)c2ccccc12,14.8,16.9,16.1,27.2,28,3.27,22.7,25.7,32,23,12.9,26.7,4.95,18,25.7,21.1,13.6,3.73,26.7,8.63
O=C1COCCN1C(=O)c1ccccc1Cl,,> 100,> 100,,> 100,> 100,> 100,> 100,> 100,> 100,> 100,> 100,> 100,> 100,> 100,> 100,> 100,> 100,> 100,
COC(=O)[C@H](COC(=O)/C=C/c1ccc(OC(C)=O)c(OC(C)=O)c1)NC(=O)/C=C/c1ccc(OC(C)=O)c(OC(C)=O)c1,> 100,20.7,> 100,37,54,38.8,34.3,> 100,> 100,43,14.4,67.4,> 100,34.9,,49.3,33.5,31.9,35.8,35.2
O=c1[nH]c2cc([N+](=O)[O-])ccc2nc1/C=C(\O)c1ccc(Cl)cc1,46.2,84.9,19.8,78.5,32.7,78.7,,26.2,39.6,26.6,30.8,21.5,44.1,19.1,53.8,36.6,38.6,30.3,24,36.4
CCOC(=O)c1cc(Br)c(-c2onc(C)c2Br)n1C,44.3,> 100,> 100,85.7,,> 100,> 100,77.5,> 100,> 100,57.7,> 100,27.5,> 100,> 100,,> 100,> 100,> 100,> 100
